Measured values from ChEMBL document CHEMBL4350983, “Combining structure- and property-based optimization to identify selective FLT3-ITD inhibitors with good antitumor efficacy in AML cell inoculated mouse xenograft model” (Eur J Med Chem, 2019).

How the values were obtained:
[1] = Mean residence time (0 to t) in Sprague-Dawley rat at 5 mg/kg, po measured up to 24 hrs by LC-MS/MS analysis; assay type: ADME, organism-based; conditions: in vivo
[2] = rat, microsomes, 0.25 h, 1 µM
[3] = AUC (0 to infinity) in Sprague-Dawley rat at 5 mg/kg, po measured up to 24 hrs by LC-MS/MS analysis; assay type: ADME, organism-based; design: dose 5 mg/kg, route oral, time infinity; conditions: in vivo
[4] = Apparent volume of distribution in Sprague-Dawley rat at 5 mg/kg, po measured up to 24 hrs by LC-MS/MS analysis; assay type: ADME, organism-based; conditions: in vivo
[5] = Mean residence time (0 to t) in Sprague-Dawley rat at 1 mg/kg, iv measured up to 24 hrs by LC-MS/MS analysis; assay type: ADME, organism-based; conditions: in vivo
[6] = Half-life in Sprague-Dawley rat at 5 mg/kg, po measured up to 24 hrs by LC-MS/MS analysis; assay type: ADME, organism-based; conditions: in vivo
[7] = Half-life in Sprague-Dawley rat at 1 mg/kg, iv measured up to 24 hrs by LC-MS/MS analysis; assay type: ADME, organism-based; conditions: in vivo
[8] = Oral bioavailability in Sprague-Dawley rat at 5 mg/kg measured up to 24 hrs by LC-MS/MS analysis; assay type: ADME, organism-based; conditions: in vivo
[9] = AUC (0 to infinity) in Sprague-Dawley rat at 1 mg/kg, iv measured up to 24 hrs by LC-MS/MS analysis; assay type: ADME, organism-based; design: dose 1 mg/kg, time infinity, route intravenous; conditions: in vivo
in vitro [10] = conditions: human, liver microsomes
[11] = Cmax in Sprague-Dawley rat at 5 mg/kg, po measured up to 24 hrs by LC-MS/MS analysis; assay type: ADME, organism-based; design: dose 5 mg/kg, route oral; conditions: in vivo
[12] = human, microsomes, 0.25 h, 1 µM
[13] = Tmax in Sprague-Dawley rat at 5 mg/kg, po measured up to 24 hrs by LC-MS/MS analysis; assay type: ADME, organism-based; conditions: in vivo
[14] = Apparent clearance in Sprague-Dawley rat at 1 mg/kg, iv measured up to 24 hrs by LC-MS/MS analysis; assay type: ADME, organism-based; conditions: in vivo, read-out: CL(app) (converted)
[15] = AUCt in Sprague-Dawley rat at 5 mg/kg, po measured up to 24 hrs by LC-MS/MS analysis; assay type: ADME, organism-based; design: time < 24 hr, dose 5 mg/kg, route oral; conditions: in vivo
[16] = Cmax in Sprague-Dawley rat at 1 mg/kg, iv measured up to 24 hrs by LC-MS/MS analysis; assay type: ADME, organism-based; design: dose 1 mg/kg, route intravenous; conditions: in vivo
[17] = Apparent clearance in Sprague-Dawley rat at 5 mg/kg, po measured up to 24 hrs by LC-MS/MS analysis; assay type: ADME, organism-based; conditions: in vivo, read-out: CL(app) (converted)
in vitro [18] = conditions: rat, liver microsomes
[19] = Apparent volume of distribution in Sprague-Dawley rat at 1 mg/kg, iv measured up to 24 hrs by LC-MS/MS analysis; assay type: ADME, organism-based; conditions: in vivo, read-out: Vz
[20] = AUCt in Sprague-Dawley rat at 1 mg/kg, iv measured up to 24 hrs by LC-MS/MS analysis; assay type: ADME, organism-based; design: dose 1 mg/kg, time < 24 hr, route intravenous; conditions: in vivo

CN1CCC(Nc2ccc(C(=O)Nc3cc(-c4ccc5c(c4)OCO5)n[nH]3)cc2)CC1
MRT last at 24 h [1]: 5.9 h | CLH [2]: 168 µL/min/kg | AUC(0-inf) [3]: 194 ng·h/mL | Vz [4]: 105.05 L/kg | MRT last at 24 h [5]: 2.75 h | half-life [6]: 184 min | half-life [7]: 118 min | bioavailability [8]: 22.8% | AUC(0-inf) [9]: 161 ng·h/mL | half-life at 0.25 h, 1 µM (in vitro [10]): 117 min | Cmax [11]: 27 ng/mL | CLH [12]: 11.8 µL/min/kg | Tmax [13]: 2.83 h | clearance [14]: 110 mL/min/kg | AUC(0-t) at 24 h [15]: 173 ng·h/mL | Cmax [16]: 205 ng/mL | CL/F [17]: 445 mL/min/kg | half-life at 0.25 h, 1 µM (in vitro [18]): 8.27 min | Vd [19]: 18.2 L/kg | AUC(0-t) at 24 h [20]: 152 ng·h/mL
